Experimental data published in patent publication US9073918B2, “Pyrazolo[4,3-b]pyridine-7-amine inhibitors of ALK5” (Takeda Pharmaceutical Company Limited, priority 2010, dated 2015).
Structures can show the parent of a compound that is named as a salt.

Key:
TGF-β R1 ALK5 = molecular target: T1, TGF-β R1 ALK5 (Homo sapiens, UniProt P36897); test: In vitro inhibition of ALK5 (LanthaScreen activity assay, TR-FRET); assay type: biochemical
T1 construct: purchased Invitrogen PV5837
T1 sequence (P36897 34-503): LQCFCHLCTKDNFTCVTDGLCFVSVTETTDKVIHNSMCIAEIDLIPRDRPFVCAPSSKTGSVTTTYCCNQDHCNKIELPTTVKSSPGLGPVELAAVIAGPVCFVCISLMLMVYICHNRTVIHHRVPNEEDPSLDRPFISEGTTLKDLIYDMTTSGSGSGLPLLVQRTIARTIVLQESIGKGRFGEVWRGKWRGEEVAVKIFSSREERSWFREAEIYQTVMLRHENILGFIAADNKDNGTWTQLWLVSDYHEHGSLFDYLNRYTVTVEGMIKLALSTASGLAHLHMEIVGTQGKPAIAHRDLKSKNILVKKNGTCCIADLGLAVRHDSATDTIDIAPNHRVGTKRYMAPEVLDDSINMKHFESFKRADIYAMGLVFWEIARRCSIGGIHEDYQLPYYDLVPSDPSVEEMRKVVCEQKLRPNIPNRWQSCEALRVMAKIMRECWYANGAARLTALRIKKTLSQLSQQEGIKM

cellular TGF-β R1 ALK5 = molecular target: T2, cellular TGF-β R1 ALK5 (Homo sapiens, UniProt P36897); test: Cellular inhibition of ALK5 (CellSensor SBE-bla HEK 293T beta-lactamase reporter); assay type: cell-based; conditions: cellular inhibition of ALK5, SBE-bla HEK 293T cells, TGFb-1 stimulated 5 hours; average where measured in multiple experiments
T2 construct: host or cells: CellSensor SBE-bla HEK 293T
T2 sequence (P36897 34-503): T1 sequence (P36897 34-503)
Procedure, shortened: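 SBE-bla HEK 293T beta-lactamase reporter cells pre-incubated 1 h at 37 °C with 2.5-fold serially diluted compounds (0.5% DMSO), then stimulated 5 h with TGFb-1 (100 ng/mL stock).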

Compound	melting point	IC50 (TGF-β R1 ALK5)	IC50 (cellular TGF-β R1 ALK5)
NC(=O)Cn1ncc2nccc(Nc3ccnc(-c4cc(Cl)ccc4F)c3)c21 (as salt: TFA) [Example 44, 2-(7-(2-(5-chloro-2-fluorophenyl)pyridin-4-ylamino)-1H-pyrazolo[4,3-b]pyridin-1-yl)acetamide]	131 to 132 °C		
CNC(=O)n1ncc2nccc(Nc3cc(C)nc(-c4cc(Cl)ccc4F)c3)c21 (as salt: TFA) [Example 58, 7-(2-(5-chloro-2-fluorophenyl)-6-methylpyridin-4-ylamino)-N-methyl-1H-pyrazolo[4,3-b]pyridine-1-carboxamide]	248 °C		
CN(C)C(=O)Cn1ncc2nccc(Nc3ccnc(-c4cc(Cl)ccc4F)c3)c21 (as salt: TFA) [Example 38, 2-(7-(2-(5-chloro-2-fluorophenyl)pyridin-4-ylamino)-1H-pyrazolo[4,3-b]pyridin-1-yl)-N,N-dimethylacetamide]	293 °C		
CCNC(=O)n1ncc2nccc(Nc3cc(C)nc(-c4cc(Cl)ccc4F)c3)c21 (as salt: TFA) [Example 59, 7-(2-(5-chloro-2-fluorophenyl)-6-methylpyridin-4-ylamino)-N-ethyl-1H-pyrazolo[4,3-b]pyridine-1-carboxamide]	245 °C		
CNC(=O)n1ncc2nccc(Nc3cc(-c4cc(Cl)ccc4F)ncc3C)c21 (as salt: TFA) [Example 52, 7-(2-(5-chloro-2-fluorophenyl)-5-methylpyridin-4-ylamino)-N-methyl-1H-pyrazolo[4,3-b]pyridine-1-carboxamide]	135 °C		
CNC(=O)n1ncc2nccc(Nc3ccnc(-c4cc(Cl)ccc4F)c3)c21 (as salt: TFA) [Example 32, 7-(2-(5-chloro-2-fluorophenyl)pyridin-4-ylamino)-N-methyl-1H-pyrazolo[4,3-b]pyridine-1-carboxamide]	256 °C		
CCNC(=O)n1ncc2nccc(Nc3ccnc(-c4cc(Cl)ccc4F)c3)c21 (as salt: TFA) [Example 29, 7-(2-(5-chloro-2-fluorophenyl)pyridin-4-ylamino)-N-ethyl-1H-pyrazolo[4,3-b]pyridine-1-carboxamide]	256 °C		
Cc1ccc(F)c(-c2cc(Nc3ccnc4cn(C)nc34)c(C)cn2)n1 [Example 123, N-(3′-fluoro-5,6′-dimethyl-2,2′-bipyridin-4-yl)-2-methyl-2H-pyrazolo[4,3-b]pyridin-7-amine]	102.9 to 103 °C	25.1 nM	79.4 nM
Cc1ccc(F)c(-c2cc(Nc3ccnc4cnn(CC(C)(C)O)c34)ccn2)n1 (as salt: TFA) [Example 70, 1-(7-(3′-fluoro-6′-methyl-2,2′-bipyridin-4-ylamino)-1H-pyrazolo[4,3-b]pyridin-1-yl)-2-methylpropan-2-ol]	135 to 136 °C		
Cc1ccc(F)c(-c2cc(Nc3ccnc4cn(C[C@H](O)CO)nc34)ccn2)n1 (as salt: HCl) [Example 69, (S)-3-(7-(3′-fluoro-6′-methyl-2,2′-bipyridin-4-ylamino)-2H-pyrazolo[4,3-b]pyridin-2-yl)propane-1,2-diol]	182 to 184 °C		
Cc1ccc(F)c(-c2cc(Nc3ccnc4cnn(C5CCS(=O)(=O)C5)c34)c(C)cn2)n1 (stereo not shown) [Example 157, N-[1-(1,1-dioxidotetrahydrothiophen-3-yl)-1H-pyrazolo[4,3-b]pyridin-7-yl]-3′-fluoro-5,6′-dimethyl-2,2′-bipyridin-4-amine]		25.1 nM	398 nM
CCNC(=O)n1ncc2nccc(Nc3ccnc(-c4cc(Cl)ccc4F)c3)c21 [Example 29, 7-(2-(5-chloro-2-fluorophenyl)pyridin-4-ylamino)-N-ethyl-1H-pyrazolo[4,3-b]pyridine-1-carboxamide]		100 nM	100 nM
CNC(=O)Cn1ncc2nccc(Nc3cc(-c4nc(C)ccc4F)ncc3C)c21 [Example 145, 2-(7-(3′-fluoro-5,6′-dimethyl-2,2′-bipyridin-4-ylamino)-1H-pyrazolo[4,3-b]pyridin-1-yl)-N-methylacetamide]		15.8 nM	126 nM
Cc1ccc(F)c(-c2cc(Nc3c(F)cnc4cn(C)nc34)c(C)cn2)n1 [Example 131, 6-fluoro-N-(3′-fluoro-5,6′-dimethyl-2,2′-bipyridin-4-yl)-2-methyl-2H-pyrazolo[4,3-b]pyridin-7-amine]		3.16 nM	10 nM
Cc1cnc(-c2cc(Cl)ccc2F)cc1Nc1ccnc2cnn(C(=O)NC(C)C)c12 (as salt: TFA) [Example 54, 7-(2-(5-chloro-2-fluorophenyl)-5-methylpyridin-4-ylamino)-N-isopropyl-1H-pyrazolo[4,3-b]pyridine-1-carboxamide]	292 °C		
Cc1ccc(F)c(-c2cc(Nc3c(F)cnc4cnn(C)c34)c(C)cn2)n1 [Example 132, 6-fluoro-N-(3′-fluoro-5,6′-dimethyl-2,2′-bipyridin-4-yl)-1-methyl-1H-pyrazolo[4,3-b]pyridin-7-amine]		63.1 nM	126 nM
Cc1ccc(F)c(-c2cc(Nc3ccnc4cn(C[C@@H](C)O)nc34)ccn2)n1 [Example 114, (R)-1-(7-(3′-fluoro-6′-methyl-2,2′-bipyridin-4-ylamino)-2H-pyrazolo[4,3-b]pyridin-2-yl)propan-2-ol]		158 nM	1260 nM
